Values after ≈ are worked out from the molar mass of the structure shown. Active and inactive are the calls of the source. The calls are words filed in the database; no cut-off is given here.
Experiments:
[1] = Cytotoxicity against African green monkey Vero cells assessed as cell viability after 72 hrs by MTT assay; format: cell-based; settings: chlorocebus sabaeus, read-out: MNCC
[2] = tested on: Mycobacterium tuberculosis; assay: Antimycobacterial activity against Mycobacterium tuberculosis H37Rv assessed as inhibition of bacterial growth at 3.198 mM by microdilution alamar blue broth assay; format: functional, organism-based
[3] = tested on: Mycobacterium tuberculosis; assay: Antimycobacterial activity against Mycobacterium tuberculosis H37Rv assessed as inhibition of bacterial growth by microdilution alamar blue broth assay; format: functional, organism-based
[4] = tested on: Mycobacterium tuberculosis; assay: Antimycobacterial activity against Mycobacterium tuberculosis H37Rv assessed as inhibition of bacterial growth at 0.17 mM by microdilution alamar blue broth assay relative to control; format: functional

NCC[C@H](O)C(=O)N[C@@H]1C[C@H](N)[C@@H](O[C@H]2O[C@H](CN)[C@@H](O)[C@H](O)[C@H]2O)[C@H](O)[C@H]1O[C@H]1O[C@H](CO)[C@@H](O)[C@H](N)[C@H]1O [AMIKACIN]
MNTC at 72 h [1]: > 6.25 µg/mL | Activity [2]: Active | IC90 [3]: 80 nM | MIC [3]: 0.16 µM (≈ 0.0937 µg/mL) | inhibition at 170 µM [4]: 30%

— ChEMBL document CHEMBL4715772, “A facile stereoselective synthesis of dispiro-indeno pyrrolidine/pyrrolothiazole-thiochroman hybrids and evaluation of their antimycobacterial, anticancer and AchE inhibitory activities” (Bioorg Med Chem, 2016)
